Legend:
[1] = test system: H929-1051; test: Tumor cell lysis by anti-CD3-activated, compound-treated PBMCs, co-culture with untreated H929-1051; type: cell-based; conditions: Homo sapiens, PBMC; lenalidomide-resistant H929-1051, untreated; 24-hour co-culture
[2] = test system: NCI-H929; test: Tumor cell lysis by anti-CD3-activated, compound-treated PBMCs, co-culture with untreated NCI-H929; type: cell-based; conditions: Homo sapiens; lenalidomide-sensitive NCI-H929, untreated; 24-hour co-culture
[3] = biological target: T1, Ikaros (Homo sapiens, UniProt Q13422+Q96SW2); test: Ikaros level by flow cytometry in ex vivo cultures of healthy donor bone marrow CD34+ cells (neutrophil maturation); type: cell-based; parameters: The effects of Compound 2 on the degradation of Ikaros in CD4+ and CD8+ T cells; endogenous in cells; host or cells: CD4+ and CD8+ T cells of healthy donors; CD34+ bone marrow cells of healthy donors; CD3+ T cells of multiple myeloma patients
T1 sequence (Q13422 whole entry): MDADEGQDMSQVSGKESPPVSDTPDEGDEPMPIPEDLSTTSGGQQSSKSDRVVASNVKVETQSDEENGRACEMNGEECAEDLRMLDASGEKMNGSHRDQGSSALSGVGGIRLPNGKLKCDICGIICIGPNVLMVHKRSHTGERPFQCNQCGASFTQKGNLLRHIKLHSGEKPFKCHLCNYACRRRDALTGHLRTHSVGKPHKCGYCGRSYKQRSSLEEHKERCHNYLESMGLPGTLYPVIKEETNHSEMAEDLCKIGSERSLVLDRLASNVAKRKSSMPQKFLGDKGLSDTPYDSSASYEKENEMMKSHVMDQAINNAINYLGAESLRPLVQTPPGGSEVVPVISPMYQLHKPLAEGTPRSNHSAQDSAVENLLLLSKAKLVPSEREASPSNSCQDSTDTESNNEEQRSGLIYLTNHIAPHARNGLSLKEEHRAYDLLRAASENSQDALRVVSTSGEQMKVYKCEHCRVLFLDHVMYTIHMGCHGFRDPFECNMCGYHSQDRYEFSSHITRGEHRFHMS
T1 sequence (Q16531 2-1140, further chain): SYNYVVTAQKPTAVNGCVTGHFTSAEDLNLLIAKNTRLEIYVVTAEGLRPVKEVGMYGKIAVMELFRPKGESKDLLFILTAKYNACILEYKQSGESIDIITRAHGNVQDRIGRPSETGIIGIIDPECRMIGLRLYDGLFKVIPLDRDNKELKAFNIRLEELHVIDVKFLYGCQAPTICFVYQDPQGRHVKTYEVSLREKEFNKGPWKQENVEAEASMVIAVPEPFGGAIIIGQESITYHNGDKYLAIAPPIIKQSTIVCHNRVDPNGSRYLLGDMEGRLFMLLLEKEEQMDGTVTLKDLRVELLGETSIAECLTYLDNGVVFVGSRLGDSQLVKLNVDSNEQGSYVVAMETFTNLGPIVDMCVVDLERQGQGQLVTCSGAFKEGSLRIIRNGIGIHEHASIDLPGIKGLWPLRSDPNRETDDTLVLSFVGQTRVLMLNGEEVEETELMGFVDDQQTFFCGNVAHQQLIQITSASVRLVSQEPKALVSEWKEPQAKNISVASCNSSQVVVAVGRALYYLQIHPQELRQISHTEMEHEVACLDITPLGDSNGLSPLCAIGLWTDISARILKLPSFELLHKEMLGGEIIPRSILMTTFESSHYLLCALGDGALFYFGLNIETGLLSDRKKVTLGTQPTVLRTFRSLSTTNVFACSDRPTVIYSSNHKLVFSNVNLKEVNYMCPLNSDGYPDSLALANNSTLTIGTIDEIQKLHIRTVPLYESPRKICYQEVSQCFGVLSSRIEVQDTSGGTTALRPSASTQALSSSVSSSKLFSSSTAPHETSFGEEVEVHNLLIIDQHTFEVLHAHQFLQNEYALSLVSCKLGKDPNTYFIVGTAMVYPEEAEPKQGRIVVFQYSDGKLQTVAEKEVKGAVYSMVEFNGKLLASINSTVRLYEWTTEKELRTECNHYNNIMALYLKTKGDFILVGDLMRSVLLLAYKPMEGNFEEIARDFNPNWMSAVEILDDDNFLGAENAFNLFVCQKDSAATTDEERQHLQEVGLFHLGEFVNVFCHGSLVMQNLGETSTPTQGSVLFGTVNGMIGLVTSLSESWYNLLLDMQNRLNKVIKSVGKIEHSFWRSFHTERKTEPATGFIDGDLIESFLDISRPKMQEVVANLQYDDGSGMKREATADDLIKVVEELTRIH
T1 sequence (Q96SW2 whole entry): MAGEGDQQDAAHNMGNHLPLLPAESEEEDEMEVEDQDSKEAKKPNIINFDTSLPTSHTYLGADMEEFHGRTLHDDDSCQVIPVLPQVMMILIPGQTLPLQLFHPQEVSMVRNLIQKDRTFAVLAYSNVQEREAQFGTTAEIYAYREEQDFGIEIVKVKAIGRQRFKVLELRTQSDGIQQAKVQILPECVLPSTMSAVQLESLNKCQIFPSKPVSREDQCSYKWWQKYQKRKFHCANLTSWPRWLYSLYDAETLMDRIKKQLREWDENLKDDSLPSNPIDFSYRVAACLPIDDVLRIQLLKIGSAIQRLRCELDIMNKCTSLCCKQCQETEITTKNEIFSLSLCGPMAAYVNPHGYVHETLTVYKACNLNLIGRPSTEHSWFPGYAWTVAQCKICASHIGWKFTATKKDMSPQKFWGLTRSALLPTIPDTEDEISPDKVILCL
Protocol: Ex vivo cultures of bone marrow (BM) CD34^+ cells from healthy donors (HD) were used to investigate the effect of Compound 2 on neutropenia. […] Therefore, we monitored the effects of Compound 2 on mature neutrophils.
Ikaros protein level was analyzed by flow cytometry after each exposure period, and also at Days 19, 21, and 23 corresponding to 3, 5, and 7 days following the last exposure, respectively. CD34^+ cells derived from healthy donor bone marrow were exposed to different concentrations of Compound 2 and different incubation schedules. The percentage of Ikaros content (normalized to the DMSO control) following Compound 2 exposure at concentrations of 1, 10, and 100 nM for 2, 4, and 6 hours on each of 1, 2, or 3 consecutive days starting on Day 14 were measured. At the end of the exposure period, Compound 2 was removed and cells were incubated in the absence of Compound 2 (recovery period). Ikaros was measured by flow cytometry after incubation with Compound 2 (Days 14 to 16) and during recovery on Days 19, 21, and 23. Ikaros levels were reduced during Compound 2 exposure and recovered following drug withdrawal in a concentration-dependent manner with no significant differences noted in association with different exposure schedules (FIG. 13). Ikaros levels began returning to normal after at least 3 days following washout, pre-dating full recovery of maturation of late-stage neutrophil precursors.
To further explore the role of Ikaros in relationship to the maturation of neutrophil progenitors, Ikaros protein levels were analyzed by flow cytometry after each exposure and every other day following the last exposure to Compound 2. […] After 3 days of exposure to Compound 2, the recovery of Ikaros began in a concentration-dependent manner just 24 hours after drug washout and returned to control levels after 10 days (FIG. 14; FIG. 16B). With 5 days of exposure to Compound 2, recovery of Ikaros started on Day 17, three days after drug washout (FIG. 15). […]

[4] = test system: relapsed and refractory multiple myeloma; test: Phase 1 study, response to treatment (IMWG criteria); type: in vivo, human; conditions: subjects with >80% decrease in sBCMA or sFLC
[5] = biological target: T1, Ikaros; test: Phase 1 study, Ikaros expression by flow cytometry in CD3+ T cells; type: in vivo; parameters: The effects of Compound 2 on the degradation of Ikaros in CD4+ and CD8+ T cells; endogenous in cells; CD34+ bone marrow cells of healthy donors; CD3+ T cells of multiple myeloma patients; conditions: QD days 1-10, 15-24/28 and BID days 1-3, 15-17/28; recovered during dosing interruptions
Protocol: FIG. 25A and FIG. 25B illustrate that Compound 2 induced Ikaros degradation in CD3+ T cells from peripheral blood of relapsed/refractory multiple myeloma patients after (FIG. 25A) the once daily (QD) 1-10, 15-24/28 schedule, or (FIG. 25B) the twice daily (BID) 1-3, 15-17/28 schedule.
Ikaros expression was measured by flow cytometry in CD3+ T cells before and during Compound 2 treatment in two different dosing schedules (QD administration on days 1 to 10 and days 15 to 24 of a 28 day cycle, and BID administration on days 1 to 3 and days 15 to 17 of a 28 day cycle).

[6] = test system: IL-2; test: IL-2 secretion from anti-CD3 antibody-stimulated healthy donor PBMCs; type: cell-based, human
Protocol: The immunomodulatory activity of Compound 2 on T cell receptor (TCR)-activated healthy PBMCs was assessed.
The effect of Compound 2 in combination with different concentrations of dexamethasone on the ability of PBMCs to produce IL-2 was explored. […]

[7] = test system: Aiolos, Ikaros, and ZFP91; test: Phase 1 study, IHC of bone marrow aspirate clots; type: in vivo, human; conditions: before and during treatment (Cycle 1)
Excerpt: FIG. 26A-FIG. 26E illustrate that the effect of Compound 2 on biomarker expression in CD138+ plasma cells from relapsed/refractory multiple myeloma patients. (FIG. 26A) Aiolos, (FIG. 26B) Ikaros, (FIG. 26C) ZFP91, (FIG. 26D) c-Myc, and (FIG. 26E) IRF4.
Bone marrow aspirate samples were taken before and during Compound 2 treatment (Cycle 1). Clots were made from each sample and processed into formalin fixed paraffin embedded blocks. Immunohistochemistry (IHC) assays were used to evaluate the biomarker expression. IHC scores were determined based on percent and intensity of positive staining.

[8] = test system: Ikaros and Aiolos; test: Immunoblot of Ikaros and Aiolos in DF15R and DF15R-human CRBN WT cells; type: cell-based; conditions: 0.1 μM, 4 hours
Protocol: Shown are Cereblon, Ikaros, and Aiolos immunoblots of extracts from DF15R and DF15R-human CRBN^WT cells that were incubated with DMSO, pomalidomide, or Compound 2 at 0.1 μM for 4 hours. Tubulin is a loading control.
To determine whether cereblon could serve as a biomarker for predicting response to Compound 2, the myeloma cell line DF15R was treated with Compound 2.

[9] = test system: H929-1051; test: Apoptosis by Caspase-Glo 3/7 normalized to CellTiter-Glo in H929-1051 cells, dexamethasone alone or with compound; type: cell-based, human; conditions: 72 hours; Compound 2 0.001, 0.01 or 0.1 μM
Protocol: Dexamethasone was dispensed at 20 concentrations, using an acoustic dispenser. The plates were sealed and stored at room temperature for the next day. […] Cells were dispensed into the assay plates with a Multidrop dispenser and duplicate plates were made for the assay. Measurement of apoptosis was made at 72 hours post-compound treatment using a Caspase-Glo 3/7 and CellTiter-Glo Assays. The Caspase-Glo 3/7 luminescence was normalized to the CellTiter-Glo luminescence to account for differences in cell number. The fold change of the treated sample was calculated as follows: normalized caspase of treated sample/average of normalized DMSO control.

Structure (SMILES): N#Cc1ccc(N2CCN(Cc3ccc(COc4cccc5c4CN([C@H]4CCC(=O)NC4=O)C5=O)cc3)CC2)c(F)c1 [Compound 2, (S)-4-(4-(4-(((2-(2,6-dioxopiperidin-3-yl)-1-oxoisoindolin-4-yl)oxy)methyl)benzyl)piperazin-1-yl)-3-fluorobenzonitrile]
- IC50 [1]: 200 pM
- IC50 [2]: 5000 pM
- time following washout at which Ikaros levels began returning to normal ([3]; 2, 4, 6 hour exposures on 1 to 3 consecutive days from Day 14): at least 3 days
- time for Ikaros to return to control levels ([3]; 3 days of 6-hour exposures): 10 days
- Ikaros degradation after one exposure ([3]; all concentrations (1, 10, 100 nM) and all exposure schedules): fully degraded
- response to treatment [4]: VGPR and PR
- Ikaros degradation in CD3+ T cells [5]: dose dependent
- peak IL-2 production above the vehicle control ([6]; 24 hours): 5.5 fold
- EC50 ([6]; Homo sapiens, PBMC, 72 h, read-out: IL-2 secretion, mean half-maximal effective concentration (EC50)): 14 pM
- Compound 2 concentration at peak IL-2 response ([6]; in combination with 10 nM dexamethasone): 10 pM
- IL-2 induction above the vehicle control ([6]; in combination with 10 nM dexamethasone, 4 donors, 72 hours): at least 10 fold
- IL-2 induction ([6]; in combination with 100 nM dexamethasone): little induction of IL-2 above baseline
- biomarker expression in the tumor compartment (IHC) [7]: induced degradation of Aiolos, Ikaros, and ZFP91
- degradation of Ikaros or Aiolos ([8]; DF15R cells, no detectable CRBN): did not show any degradation
- degradation of Ikaros and Aiolos after reintroduction of CRBN ([8]; DF15R-human CRBN WT cells): reactivated
- shift of the onset of dexamethasone activity in the presence of Compound 2 [9]: 1 log

— patent US12510533B2, “Methods for treating multiple myeloma and the use of companion biomarkers for 4-(4-(4-(((2-(2,6-dioxopiperidin-3-yl)-1-oxoisoindolin-4-yl)oxy)methyl)benzyl)piperazin-1-yl)-3-fluorobenzonitrile” (Celgene Corporation, priority 2018, dated 2025)
